Data on 21 compounds can be found in ChEMBL document CHEMBL4229482, “Design, synthesis and biological evaluation of novel spiro-pentacylamides as acetyl-CoA carboxylase inhibitors” (Bioorg Med Chem, 2018).

One assay has as its target Acetyl-CoA carboxylase 2 (Homo sapiens, UniProt O00763). Description: Inhibition of C-terminal His-tagged full length human ACC2 expressed in Baculovirus infected Sf9 insect cells using acetyl CoA as substrate preincubated for 15 mins followed by substrate addition and measured after 60 mins by ADP-Glo assay.
The next assay concerns the target Acetyl-CoA carboxylase 1 (Homo sapiens, UniProt Q13085). Nature of the assay: Inhibition of C-terminal His-tagged recombinant human ACC1 (1 to 2383 residues) expressed in Baculovirus infected Sf9 insect cells using acetyl CoA as substrate preincubated for 15 mins followed by substrate addition and measured after 60 mins by ADP-Glo assay. For orientation: In ADP-Glo the light output rises with the ADP produced.

The subject of a further assay is NCI-H1975. Nature of the assay: Antiproliferative activity against human NCI-H1975 cells after 48 hrs by MTT assay. The format is functional, cell-based. Conditions: NCI-H1975, 48 h. (In general: Tetrazolium assays rely on reduction of a dye to a coloured formazan, in cell work by metabolically active cells.)
The test system of a further assay is Caco-2. Description: Antiproliferative activity against human Caco2 cells after 48 hrs by MTT assay. The class given is functional, cell-based. Conditions: Caco-2, 48 h.
The subject of another assay is HCT-116. Description: cells. Particulars: Homo sapiens, HCT-116, 48 h.
A further assay concerns SW-620. Nature of the assay: cells. Conditions: Homo sapiens, SW-620, 48 h.
A further assay deals with A549. Nature of the assay: cells. Particulars: Homo sapiens, A549, 48 h.

Chain of Acetyl-CoA carboxylase 2 (O00763 whole entry, the tested form may be a part): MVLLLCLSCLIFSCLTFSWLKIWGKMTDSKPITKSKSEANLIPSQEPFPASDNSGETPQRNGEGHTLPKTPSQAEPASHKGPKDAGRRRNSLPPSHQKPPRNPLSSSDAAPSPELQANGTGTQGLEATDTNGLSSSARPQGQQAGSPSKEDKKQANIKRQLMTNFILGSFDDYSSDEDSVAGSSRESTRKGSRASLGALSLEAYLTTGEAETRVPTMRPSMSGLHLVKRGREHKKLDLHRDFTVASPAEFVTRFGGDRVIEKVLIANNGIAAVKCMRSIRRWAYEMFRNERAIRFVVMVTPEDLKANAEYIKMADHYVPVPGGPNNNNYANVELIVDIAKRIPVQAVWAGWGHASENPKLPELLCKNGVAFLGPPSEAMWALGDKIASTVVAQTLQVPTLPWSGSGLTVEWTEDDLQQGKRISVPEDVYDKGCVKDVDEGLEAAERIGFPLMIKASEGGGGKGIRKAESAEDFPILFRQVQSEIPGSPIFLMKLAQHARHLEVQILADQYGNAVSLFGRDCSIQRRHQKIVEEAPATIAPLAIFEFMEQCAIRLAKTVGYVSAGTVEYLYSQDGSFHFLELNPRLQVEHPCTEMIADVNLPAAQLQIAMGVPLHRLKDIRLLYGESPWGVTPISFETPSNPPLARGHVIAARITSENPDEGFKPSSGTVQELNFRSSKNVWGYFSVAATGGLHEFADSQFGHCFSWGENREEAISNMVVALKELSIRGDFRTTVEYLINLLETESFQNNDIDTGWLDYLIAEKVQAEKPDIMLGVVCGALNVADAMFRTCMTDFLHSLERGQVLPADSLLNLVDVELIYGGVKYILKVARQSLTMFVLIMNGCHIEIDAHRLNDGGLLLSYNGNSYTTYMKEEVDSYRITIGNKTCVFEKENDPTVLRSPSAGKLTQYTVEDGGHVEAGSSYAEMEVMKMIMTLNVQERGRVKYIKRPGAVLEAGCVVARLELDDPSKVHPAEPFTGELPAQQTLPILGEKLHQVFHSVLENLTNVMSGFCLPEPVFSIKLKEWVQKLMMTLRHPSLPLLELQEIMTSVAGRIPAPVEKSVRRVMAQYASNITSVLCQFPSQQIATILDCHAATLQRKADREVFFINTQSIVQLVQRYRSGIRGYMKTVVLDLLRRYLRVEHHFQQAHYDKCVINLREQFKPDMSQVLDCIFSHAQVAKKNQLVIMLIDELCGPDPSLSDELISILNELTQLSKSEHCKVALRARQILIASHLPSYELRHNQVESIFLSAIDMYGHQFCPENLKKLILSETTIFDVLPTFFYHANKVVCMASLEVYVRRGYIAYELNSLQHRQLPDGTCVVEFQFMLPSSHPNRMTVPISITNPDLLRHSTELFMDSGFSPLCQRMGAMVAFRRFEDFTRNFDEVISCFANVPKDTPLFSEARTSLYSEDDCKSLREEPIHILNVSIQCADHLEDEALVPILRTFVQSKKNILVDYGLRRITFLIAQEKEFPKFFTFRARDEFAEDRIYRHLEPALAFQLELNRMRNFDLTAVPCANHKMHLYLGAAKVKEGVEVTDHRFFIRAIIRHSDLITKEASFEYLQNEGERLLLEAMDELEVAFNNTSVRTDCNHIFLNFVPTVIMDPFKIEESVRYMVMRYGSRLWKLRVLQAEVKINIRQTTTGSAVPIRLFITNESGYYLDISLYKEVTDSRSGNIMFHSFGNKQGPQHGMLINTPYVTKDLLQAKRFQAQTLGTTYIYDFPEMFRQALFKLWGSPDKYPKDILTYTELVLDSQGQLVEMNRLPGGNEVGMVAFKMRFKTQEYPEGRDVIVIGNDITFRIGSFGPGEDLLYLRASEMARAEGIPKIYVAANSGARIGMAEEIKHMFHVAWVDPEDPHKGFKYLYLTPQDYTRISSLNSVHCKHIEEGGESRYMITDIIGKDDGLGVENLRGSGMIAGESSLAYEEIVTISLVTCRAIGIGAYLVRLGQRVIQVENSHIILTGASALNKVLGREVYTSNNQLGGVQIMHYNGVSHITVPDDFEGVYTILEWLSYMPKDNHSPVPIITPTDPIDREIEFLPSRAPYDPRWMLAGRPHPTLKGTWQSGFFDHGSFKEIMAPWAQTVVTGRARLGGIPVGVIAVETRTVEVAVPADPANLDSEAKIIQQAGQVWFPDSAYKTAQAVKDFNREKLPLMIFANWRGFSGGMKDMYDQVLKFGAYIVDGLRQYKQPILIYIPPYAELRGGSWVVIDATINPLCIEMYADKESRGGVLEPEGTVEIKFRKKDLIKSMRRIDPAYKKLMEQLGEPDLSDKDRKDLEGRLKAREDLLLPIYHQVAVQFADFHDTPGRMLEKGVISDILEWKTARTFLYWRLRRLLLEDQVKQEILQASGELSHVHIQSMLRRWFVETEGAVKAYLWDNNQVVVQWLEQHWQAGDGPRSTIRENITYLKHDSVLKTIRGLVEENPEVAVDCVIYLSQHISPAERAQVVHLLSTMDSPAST
Description for SW-620: Antiproliferative activity against human SW620 cells after 48 hrs by MTT assay

As a reminder, the IC50 is the point on the concentration scale where inhibition reaches its midpoint. With `O=C(c1ccc2ncccc2c1)N1CCC2(CC1)CC(=O)N(c1ccc(C(F)(F)F)cc1)C2`, the concentration for half-maximal inhibition (IC50) against Acetyl-CoA carboxylase 2 and on Acetyl-CoA carboxylase 1 was > 5000 nM each time.
Regarding `Cc1cc(C(=O)N2CCC3(CC2)CC(=O)N(c2ccc(C(=O)O)cc2)C3)cc2cn[nH]c12`, the IC50 came out at 4650 nM on Acetyl-CoA carboxylase 2 and 2790 nM on Acetyl-CoA carboxylase 1.
On to `O=C(c1ccc2[nH]c(-c3ccncc3)nc2c1)N1CCC2(CC1)CC(=O)N(c1ccc(C(F)(F)F)cc1)C2`, for which the IC50 was 390 nM with NCI-H1975; 1240 nM against Acetyl-CoA carboxylase 2; 2650 nM at Acetyl-CoA carboxylase 1; > 10 µM in the assay on Caco-2; 7.64 µM in the assay with HCT-116; 7.24 µM in the assay on SW-620. Also, in the assay on A549, the half-maximal inhibitory concentration (IC50) came out at 3490 nM.
Regarding `Cc1cc(C(=O)N2CCC3(CC2)CC(=O)c2nn(C(C)(C)C)cc2O3)cc2cn[nH]c12`, the half-inhibitory concentration (IC50) with NCI-H1975 was 210 nM; against Acetyl-CoA carboxylase 2, 8 nM; on Acetyl-CoA carboxylase 1, 32 nM; with Caco-2, 6.51 µM; in the assay on HCT-116 it was 2.43 µM; in the assay on SW-620 it was 3.19 µM. In addition, the half-inhibitory concentration (IC50) with A549 turned out to be 740 nM.
For `O=C(c1ccc2[nH]c(-c3ccco3)nc2c1)N1CCC2(CC1)CC(=O)N(c1ccc(C(F)(F)F)cc1)C2`, the IC50 in the assay on NCI-H1975 was 720 nM; against Acetyl-CoA carboxylase 2 it was 976 nM; on Acetyl-CoA carboxylase 1 it was 1050 nM; in the assay on HCT-116, > 10 µM; with SW-620 it was 3.26 µM; in the assay on A549, 7960 nM.
`O=C(c1ccc2[nH]c3c(c2c1)CCC3)N1CCC2(CC1)CC(=O)N(c1ccc(C(F)(F)F)cc1)C2`: the concentration for half-maximal inhibition (IC50) on Acetyl-CoA carboxylase 2 worked out at 3480 nM; on Acetyl-CoA carboxylase 1, 4270 nM.
Take `CC(C)c1ccc(-c2nc3cc(C(=O)N4CCC5(CC4)CC(=O)N(c4ccc(C(F)(F)F)cc4)C5)ccc3[nH]2)cc1`: the IC50 in the assay with NCI-H1975 was > 10000 nM; at Acetyl-CoA carboxylase 2 it was 764 nM; on Acetyl-CoA carboxylase 1, 1150 nM; with Caco-2, > 10 µM; in the assay on HCT-116, 6.21 µM; with SW-620 it was > 10 µM. Further, in the assay with A549, half-maximal inhibition (IC50) required 1030 nM.
In the case of `O=C(c1ccc2[nH]ccc2c1)N1CCC2(CC1)CC(=O)N(c1ccc(C(F)(F)F)cc1)C2`, the IC50 at Acetyl-CoA carboxylase 2 and on Acetyl-CoA carboxylase 1 was > 5000 nM each time.
As to `CCCc1nc2cc(C(=O)N3CCC4(CC3)CC(=O)N(c3ccc(C(F)(F)F)cc3)C4)cc(C)c2[nH]1`, the IC50 is 270 nM in the assay with NCI-H1975; 1940 nM against Acetyl-CoA carboxylase 2; 1690 nM at Acetyl-CoA carboxylase 1; > 10 µM with Caco-2; 4.21 µM in the assay on HCT-116; 1.82 µM in the assay on SW-620. Also, the IC50 in the assay with A549 is > 10000 nM.
`O=C(c1ccc2cc[nH]c2c1)N1CCC2(CC1)CC(=O)N(c1ccc(C(F)(F)F)cc1)C2`: the values for the half-inhibitory concentration (IC50) against Acetyl-CoA carboxylase 2 and on Acetyl-CoA carboxylase 1 were > 5000 nM and 4950 nM, respectively.
Turning to `O=C(c1ccc2[nH]c(-c3ccccc3)nc2c1)N1CCC2(CC1)CC(=O)N(c1ccc(C(F)(F)F)cc1)C2`, the IC50 came out at 380 nM with NCI-H1975; 397 nM against Acetyl-CoA carboxylase 2; 527 nM at Acetyl-CoA carboxylase 1; 5.42 µM in the assay on Caco-2; 1.22 µM with HCT-116; 2.05 µM in the assay with SW-620. Besides, half-maximal inhibition in the assay on A549 (IC50) was put at 1920 nM.
As to `Cc1cc(C(=O)N2CCC3(CC2)CC(=O)N(c2ccc(C#N)cc2)C3)cc2cn[nH]c12`, the IC50 is > 5000 nM at Acetyl-CoA carboxylase 2 and 3990 nM on Acetyl-CoA carboxylase 1.
With `O=C(c1ccc2cn[nH]c2c1)N1CCC2(CC1)CC(=O)N(c1ccc(C(F)(F)F)cc1)C2`, the concentration for half-maximal inhibition (IC50) at Acetyl-CoA carboxylase 2 stood at 2740 nM; on Acetyl-CoA carboxylase 1, 4730 nM.
For `Cc1nc2cc(C(=O)N3CCC4(CC3)CC(=O)N(c3ccc(C(F)(F)F)cc3)C4)ccc2[nH]1` the same measures were 3020 nM and 2220 nM.
With `O=C(c1ccc2[nH]c3c(c2c1)CCCC3)N1CCC2(CC1)CC(=O)N(c1ccc(C(F)(F)F)cc1)C2`, the half-maximal inhibitory concentration (IC50) on Acetyl-CoA carboxylase 2 was 1110 nM; at Acetyl-CoA carboxylase 1 it was 1950 nM; in the assay on HCT-116 it was 8.67 µM; in the assay with SW-620, 4.74 µM; in the assay on A549, > 10000 nM.
In the case of `O=C(c1ccc2cccnc2c1)N1CCC2(CC1)CC(=O)N(c1ccc(C(F)(F)F)cc1)C2`, the results for the half-inhibitory concentration (IC50) against Acetyl-CoA carboxylase 2 and on Acetyl-CoA carboxylase 1 were > 5000 nM and 4920 nM, respectively.
For `Cc1cc(C(=O)N2CCC3(CC2)CC(=O)N(c2ccc(C#N)cc2F)C3)cc2cn[nH]c12` the same measures were > 5000 nM and 3560 nM.
With `COC(=O)c1ccc(N2CC3(CCN(C(=O)c4cc(C)c5[nH]ncc5c4)CC3)CC2=O)cc1`, the 50% inhibitory concentration (IC50) with NCI-H1975 is 5640 nM; against Acetyl-CoA carboxylase 2, 1880 nM; on Acetyl-CoA carboxylase 1, 2240 nM; in the assay with Caco-2 it was > 10 µM; with HCT-116 it was > 10 µM; in the assay with SW-620, > 10 µM. The compound further displayed a half-inhibitory concentration (IC50) with A549 of 2110 nM.
Take `Cc1cc(C(=O)N2CCC3(CC2)CC(=O)N(c2ccc(C(F)(F)F)cc2)C3)cc2cn[nH]c12`: the 50% inhibitory concentration (IC50) was > 10000 nM in the assay on NCI-H1975; 944 nM against Acetyl-CoA carboxylase 2; 1200 nM at Acetyl-CoA carboxylase 1; > 10 µM with Caco-2; 8.67 µM in the assay with HCT-116; > 10 µM in the assay with SW-620. Further, the concentration for half-maximal inhibition (IC50) with A549 is > 10000 nM.
For the compound `O=C(c1cnc2ccccc2c1)N1CCC2(CC1)CC(=O)N(c1ccc(C(F)(F)F)cc1)C2`, the IC50 against Acetyl-CoA carboxylase 2 and on Acetyl-CoA carboxylase 1 was > 5000 nM in each case.
Turning to `Cc1cc(N2CC3(CCN(C(=O)c4cc(C)c5[nH]ncc5c4)CC3)CC2=O)ccc1C#N`, the IC50 was determined as 3770 nM against Acetyl-CoA carboxylase 2 and 2010 nM on Acetyl-CoA carboxylase 1.
